The values below come from patent US10072125B2, “Thiourea-containing dendrimer and thiourea-containing hyperbranched polymer as well as preparation methods thereof and applications thereof” (priority 2014, dated 2018).

Common to all, as to assay: Antibacterial performance test, MIC by broth dilution
Assay type in all cases: cell-based
(In general: Broth dilution looks for growth in wells or tubes with falling amounts of substance.)

Test [1] concerns Staphylococcus aureus. The conditions noted are these: 24 h at 37° C., 5×10^5 CFU/mL, read-out: MIC S. aureus. On the procedure: (§1) To evaluate the antimicrobial activity of each generation of polythiourea dendrimer as described in Example 3, the MICs (minimal inhibitory concentrations) of these dendrimers against different bacteria strains, including Staphylococcus aureus, Enterococcus faecalis, Escherichia coli, Staphylococcus epidermidis, Enterobacter cloacae and Proteus valgaris were determined.
(§2) The strains stored at −20° C. were inoculated on MH agar plates and incubated overnight at 37° C. The monoclonal colonies were cultured in 3 mL nutrient broth at 37° C. to reach the logarithmic growth period. Then the bacteria were diluted with the MH broth to 0.5 millet turbidity standard and further diluted to 1:100 with MH broth as a stock. The diluted bacteria should be inoculated within 15 min. The polythiourea dendrimers were diluted with sterile water into 200 mg/mL, filtered and sterilized. Gentamicin and amikacin were used as positive controls for Gram-negative and Gram-positive bacteria, respectively. Dispense 100 μL of M-H broth into all wells of 96-well plate, and then pipette 100 μL of M-G1-PEG, M-G2-PEG, M-G3-PEG, M-G4-PEG, antibiotics and MH broth in the first column in the order of labeling. After mixing well with the gun, transfer 100 μL from each well in the first column to the corresponding well in the second column. Repeat the procedure to column 10 and discard […], from column 10. Then 100 μL of bacteria was added to each well. The final bacterial solution concentration per well was 5×10^5 CFU/mL. On the outer periphery of the 96-well plate, 200 μL of the drug-free suspension was added as a sterile control. At the same time subculture the suspension in the agar plate, for assessing the purity of bacteria. The inoculated 96-well plates were shaken on a micro-shaker for 1 min, mixed thoroughly and placed in a wet box. After incubated for 24 h at 37° C., the minimum drug concentration of the clear well was observed by the naked eye as the MIC of the drug. At the same time, it was examined whether the growth of the control well was good and the sterile control well was clear. The plate culture of the suspension was examined to determine whether it was contaminated and whether the MIC value of the control strain was in the control range. This assay was repeated three times.

For test [2], the system named is Staphylococcus epidermidis. The conditions noted are these: 24 h at 37° C., 5×10^5 CFU/mL, read-out: MIC S. epidermidis. The method, then: as §1, §2
Test [3] has as its system Enterococcus faecalis. The settings on record: 24 h at 37° C., 5×10^5 CFU/mL, read-out: MIC E. faecalis. On the procedure: as §1, §2
Test [4] relates to Enterobacter cloacae. The settings on record: 24 h at 37° C., 5×10^5 CFU/mL. On the procedure: as §1, §2
Test [5] relates to Proteus valgaris. The settings on record: 24 h at 37° C., 5×10^5 CFU/mL. On the procedure:
as §1, §2

For test [6], the system named is Escherichia coli. The conditions noted are these: 24 h at 37° C., 5×10^5 CFU/mL. On the procedure: as §1, §2

In brackets after ≈: the same amount, converted by molar mass. Marks after values point to notes of the source that are not given here.

For orientation: MIC means the lowest concentration that inhibits growth of the organism.

`NCC[C@H](O)C(=O)N[C@@H]1C[C@H](N)[C@@H](O[C@H]2O[C@H](CN)[C@@H](O)[C@H](O)[C@H]2O)[C@H](O)[C@H]1O[C@H]1O[C@H](CO)[C@@H](O)[C@H](N)[C@H]1O` [Amikacin]: the MIC in test [1] turned out to be 2 µg/mL (≈ 3.42 µM); in test [2], 0.5 µg/mL (≈ 0.854 µM); in test [3] it was 4 µg/mL (≈ 6.83 µM).
Regarding Gentamicin, the “MIC E. cloacae” value in test [4] was 2** μg/mL. For the same compound, in test [5], the “MIC P. valgaris” value was 2** μg/mL. The “MIC E. coli” value in test [6] is recorded as 1** μg/mL.
